Measurements reported in patent US20260242739A1, “ROLE OF HEPATOCYTE-DERIVED EXTRACELLULAR MATRIX AND COAGULATION FACTORS FOR THE FATE RESTORATION AND MAINTENANCE OF HUMAN HEPATOCYTES” (UNIVERSITY OF SOUTHERN CALIFORNIA, priority 2023, published 2026).

System: HLCM-HHs
Assay type: cell-based, human
Conditions: 7 days
Method: As described in our previous publication (Tateno 2015), humanized liver chimeric mice (HLCM) were generated through xenotransplantation of cryopreserved or freshly isolated primary human hepatocytes (Lot:JFC, BioIVT, NY, US) into severe […] immune deficient (SCID) mice carrying a albumin enhancer/promoter-driven transgene (cDNA), urokinase type plasminogen activator, namely cDNA-uPA Tg/SCID). HLCM with blood human albumin level higher than 10 mg/mL were used for human hepatocyte isolation with two-step collagenase perfusion. The freshly isolated HLCM derived human hepatocytes (HLCM-HH) were plated on type I collagen coated culture dishes (BioCoat, Corning, NY, USA) at 1.05×10^5 cells/cm^2. […]
Total RNA was extracted with Zymo-Quick RNA micro kit (Zymo Research, CA, USA) according to the provider's protocol. […] Real-time quantitative PCR was performed with PowerUp SYBR Green Master Mix (ThermoFisher Scientific, MA, USA) and QuantStudio 5 systems (ThermoFisher Scientific) using human specific primer sets summarized in the Table 4. Relative gene expression levels were analyzed with the Delta-Dleta Ct method.

Fibrinogen
expression of cholangiocyte/liver progenitor cell markers, TGFB2 and ANKRD1 (INVITROGRO HI (IH) and HCM media with or without fibrinogen 50 μg/mL): significantly inhibited
expressions of cholangiocyte/liver progenitor cell markers (TGFB1, TGFB2, ANKRD1, KRT19) (supplemented to fresh dHCGM at 50 μg/mL, vs dHCGM alone, qPCR): significantly inhibited
